Legend:
αvβ1 = αvβ1 (Homo sapiens, UniProt P05556+P06756); test: Solid Phase Integrin αvβ1 Assay; assay type: binding
In short: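 Wells coated with 1 µg/mL recombinant TGFb1-LAP and blocked with 2% BSA/TBST, 1 mM MnCl2; αvβ1 (added at 0.2 µg/mL) and compound incubated 90 min at room temperature. Bound integrin detected by streptavidin-HRP (20 min) and TMB after Mn-containing washes; IC50 by four-parameter logistic fit.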

αvβ6 = αvβ6 (Homo sapiens, UniProt P06756+P18564); test: Solid Phase Integrin αvβ6 Assay; assay type: binding
In short: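 Plates coated with 1 μg/mL recombinant TGFb1-LAP; compounds and αvβ6 (0.2 μg/mL diluted stock) incubated 1 h at room temperature in 2% BSA/TBST with 1 mM MnCl2. Bound integrin detected with streptavidin-HRP and TMB; IC50 from four-parameter logistic fits.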

Chain of αvβ1 (P06756 31-992 limits assumed): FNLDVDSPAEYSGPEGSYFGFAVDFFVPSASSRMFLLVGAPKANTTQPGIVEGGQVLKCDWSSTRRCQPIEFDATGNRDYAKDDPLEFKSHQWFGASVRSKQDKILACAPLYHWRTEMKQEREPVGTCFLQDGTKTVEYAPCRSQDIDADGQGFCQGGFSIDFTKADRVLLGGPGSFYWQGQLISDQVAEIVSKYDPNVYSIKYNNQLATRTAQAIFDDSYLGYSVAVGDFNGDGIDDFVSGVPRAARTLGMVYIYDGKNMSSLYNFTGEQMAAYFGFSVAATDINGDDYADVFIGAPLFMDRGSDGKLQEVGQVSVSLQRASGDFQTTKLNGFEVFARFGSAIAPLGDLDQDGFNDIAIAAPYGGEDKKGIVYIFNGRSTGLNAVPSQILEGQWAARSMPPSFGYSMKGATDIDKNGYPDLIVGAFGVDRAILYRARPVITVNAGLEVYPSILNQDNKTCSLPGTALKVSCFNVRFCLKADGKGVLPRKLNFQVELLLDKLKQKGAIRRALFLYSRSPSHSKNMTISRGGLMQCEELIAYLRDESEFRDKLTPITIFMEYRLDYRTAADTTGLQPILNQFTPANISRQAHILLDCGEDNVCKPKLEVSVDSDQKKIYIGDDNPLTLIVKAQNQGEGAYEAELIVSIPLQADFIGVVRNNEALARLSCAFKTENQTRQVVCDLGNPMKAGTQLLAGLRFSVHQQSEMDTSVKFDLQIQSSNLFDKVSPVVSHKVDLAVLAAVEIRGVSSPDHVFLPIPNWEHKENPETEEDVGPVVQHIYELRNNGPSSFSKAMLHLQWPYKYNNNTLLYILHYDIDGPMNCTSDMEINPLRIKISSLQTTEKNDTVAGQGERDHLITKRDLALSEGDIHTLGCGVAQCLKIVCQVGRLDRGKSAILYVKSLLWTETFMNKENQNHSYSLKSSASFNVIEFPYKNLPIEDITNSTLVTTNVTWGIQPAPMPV
Chain of αvβ1 (P05556 21-728 limits assumed): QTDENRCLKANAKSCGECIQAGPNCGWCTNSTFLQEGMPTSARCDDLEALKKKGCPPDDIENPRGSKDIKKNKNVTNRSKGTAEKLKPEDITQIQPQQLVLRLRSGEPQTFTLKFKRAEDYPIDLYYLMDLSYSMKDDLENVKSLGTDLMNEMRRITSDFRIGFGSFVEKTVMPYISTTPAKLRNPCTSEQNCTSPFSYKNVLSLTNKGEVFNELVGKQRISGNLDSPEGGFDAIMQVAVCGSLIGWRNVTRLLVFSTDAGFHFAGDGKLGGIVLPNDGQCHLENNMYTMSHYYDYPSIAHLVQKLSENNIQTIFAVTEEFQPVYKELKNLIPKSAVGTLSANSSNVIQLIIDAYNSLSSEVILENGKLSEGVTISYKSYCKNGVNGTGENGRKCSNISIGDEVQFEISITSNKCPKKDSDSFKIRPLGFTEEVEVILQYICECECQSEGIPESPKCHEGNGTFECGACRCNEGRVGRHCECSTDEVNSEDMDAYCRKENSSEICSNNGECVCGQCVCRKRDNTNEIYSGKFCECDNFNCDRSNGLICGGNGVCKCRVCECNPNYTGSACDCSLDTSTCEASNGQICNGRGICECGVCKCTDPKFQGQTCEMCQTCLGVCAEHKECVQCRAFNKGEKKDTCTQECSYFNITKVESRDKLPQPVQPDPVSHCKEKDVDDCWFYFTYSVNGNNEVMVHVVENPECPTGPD
Chain of αvβ6 (P06756 31-992 limits assumed): as the sequence (P06756 31-992 limits assumed) above
Chain of αvβ6 (P18564 22-707 limits assumed): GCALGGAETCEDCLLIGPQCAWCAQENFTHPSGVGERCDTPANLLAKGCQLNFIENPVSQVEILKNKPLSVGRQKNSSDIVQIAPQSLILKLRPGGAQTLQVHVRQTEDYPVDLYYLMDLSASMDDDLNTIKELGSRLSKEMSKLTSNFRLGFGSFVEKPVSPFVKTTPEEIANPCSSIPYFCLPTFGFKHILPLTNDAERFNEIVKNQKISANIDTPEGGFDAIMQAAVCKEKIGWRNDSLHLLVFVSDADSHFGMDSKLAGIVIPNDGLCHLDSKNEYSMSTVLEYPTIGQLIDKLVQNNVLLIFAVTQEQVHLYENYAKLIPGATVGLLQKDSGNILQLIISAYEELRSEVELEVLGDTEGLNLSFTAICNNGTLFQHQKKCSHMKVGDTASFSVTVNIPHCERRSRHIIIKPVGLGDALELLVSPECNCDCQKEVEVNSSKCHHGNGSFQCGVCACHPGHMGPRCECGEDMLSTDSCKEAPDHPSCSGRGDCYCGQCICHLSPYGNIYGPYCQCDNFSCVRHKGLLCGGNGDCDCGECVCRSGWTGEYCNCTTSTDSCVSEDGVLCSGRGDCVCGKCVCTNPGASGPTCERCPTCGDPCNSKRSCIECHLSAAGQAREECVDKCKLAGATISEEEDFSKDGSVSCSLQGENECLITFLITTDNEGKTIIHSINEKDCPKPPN

Work on `C[C@H]1C[C@@H](C(=O)N[C@@H](CC(=O)O)c2ccccc2)CN(CCCc2ccc3c(n2)NCCC3)C1` [Compound 552] yielded an IC50 (αvβ1) of 100 to 1000 nM and an IC50 (αvβ6) of 100 to 1000 nM.
`C[C@@H]1C[C@@H](C(=O)N[C@@H](CC(=O)O)c2ccccc2)CN(CCCc2ccc3c(n2)NCCC3)C1` [Compound 553] was tested, and the IC50 (αvβ1) was 100 to 1000 nM and the IC50 (αvβ6) was 100 to 1000 nM.
`C[C@H]1CC[C@@H](C(=O)N[C@@H](CC(=O)O)c2ccccc2)CN1CCCc1ccc2c(n1)NCCC2` [Compound 554] showed an IC50 (αvβ1) of over 1000 nM and an IC50 (αvβ6) of 100 to 1000 nM.
Work on `O=C(O)C[C@H](NC(=O)[C@]1(F)CCCN(CCCc2ccc3c(n2)NCCC3)C1)c1ccccc1` [Compound 555] yielded an IC50 (αvβ1) of 100 to 1000 nM and an IC50 (αvβ6) of 100 to 1000 nM.
For `O=C(O)C[C@H](NC(=O)[C@@H]1CCCN(CCCc2ccc3c(n2)NCCC3)C1)c1ccccc1C1CC1` [Compound 556], the IC50 (αvβ1) was 100 to 1000 nM and the IC50 (αvβ6) was 100 to 1000 nM.
Work on `O=C(O)C[C@H](NC(=O)[C@@H]1CCCN(CCCc2ccc3c(n2)NCCC3)C1)c1ccc(C2CC2)cc1` [Compound 557] yielded an IC50 (αvβ1) of over 1000 nM and an IC50 (αvβ6) of 100 to 1000 nM.
In the case of `O=C(O)C[C@H](NC(=O)[C@@H]1CCCN(CCCc2ccc3c(n2)NCCC3)C1)c1cccc(C2CC2)c1F` [Compound 559], the IC50 (αvβ1) is reported as over 1000 nM and the IC50 (αvβ6) is reported as 100 to 1000 nM.
`O=C(NC[C@H](C(=O)O)c1cccc2c1CCC2)[C@@H]1CCCN(CCCc2ccc3c(n2)NCCC3)C1` [Compound 560] was tested, and the IC50 (αvβ1) was 100 to 1000 nM and the IC50 (αvβ6) was 100 to 1000 nM.
`O=C(NC[C@@H](C(=O)O)c1cccc2c1CCC2)[C@@H]1CCCN(CCCc2ccc3c(n2)NCCC3)C1` [Compound 561] showed an IC50 (αvβ1) of under 100 nM and an IC50 (αvβ6) of under 100 nM.
In the case of `O=C(NC[C@H](Nc1ncnc2c(C(F)(F)F)cccc12)C(=O)O)[C@@H]1CCCN(CCCc2ccc3c(n2)NCCC3)C1` [Compound 562], the IC50 (αvβ1) is reported as under 100 nM and the IC50 (αvβ6) is reported as under 100 nM.
`O=C(NC[C@H](Nc1ncncc1C(F)(F)F)C(=O)O)[C@@H]1CCCN(CCCc2ccc3c(n2)NCCC3)C1` [Compound 563] gave an IC50 (αvβ1) of under 100 nM and an IC50 (αvβ6) of under 100 nM.
With `O=C(NC[C@H](C(=O)O)c1cccc(N2C[C@H]3CC[C@@H]2CO3)c1)[C@@H]1CCCN(CCCc2ccc3c(n2)NCCC3)C1` [Compound 565] the IC50 (αvβ1) was under 100 nM and the IC50 (αvβ6) was under 100 nM.
`O=C(NC[C@H](C(=O)O)c1cccc(N2C[C@@H]3CC[C@H]2CO3)c1)[C@@H]1CCCN(CCCc2ccc3c(n2)NCCC3)C1` [Compound 566] gave an IC50 (αvβ1) of under 100 nM and an IC50 (αvβ6) of under 100 nM.
Work on `O=C(Nc1ccccc1)N[C@@H](CNC(=O)[C@@H]1CCCN(CCCc2ccc3c(n2)NCCC3)C1)C(=O)O` [Compound 567] yielded an IC50 (αvβ1) of under 100 nM and an IC50 (αvβ6) of under 100 nM.
Work on `CC1(C)CN(c2cccc([C@@H](CO[C@@H]3CCCN(CCCc4ccc5c(n4)NCCC5)C3)CC(=O)O)c2)CCO1` [Compound 568] yielded an IC50 (αvβ1) of under 100 nM and an IC50 (αvβ6) of under 100 nM.
Compound `CC1(C)CN(c2cccc([C@H](CO[C@@H]3CCCN(CCCc4ccc5c(n4)NCCC5)C3)CC(=O)O)c2)CCO1` [Compound 569] has an IC50 (αvβ1) of 100 to 1000 nM and an IC50 (αvβ6) of 100 to 1000 nM.
For `CC1(C)CCCN(c2cccc([C@@H](CO[C@@H]3CCCN(CCCc4ccc5c(n4)NCCC5)C3)CC(=O)O)c2)C1` [Compound 570], the IC50 (αvβ1) was under 100 nM and the IC50 (αvβ6) was under 100 nM.
Work on `CC1(C)CCN(c2cccc([C@@H](CO[C@@H]3CCCN(CCCc4ccc5c(n4)NCCC5)C3)CC(=O)O)c2)CC1` [Compound 571] yielded an IC50 (αvβ1) of under 100 nM and an IC50 (αvβ6) of under 100 nM.
In the case of `CC1(C)CCCN(c2cccc([C@H](CO[C@@H]3CCCN(CCCc4ccc5c(n4)NCCC5)C3)CC(=O)O)c2)C1` [Compound 572], the IC50 (αvβ1) is reported as under 100 nM and the IC50 (αvβ6) is reported as under 100 nM.
`CC1(C)CCN(c2cccc([C@H](CO[C@@H]3CCCN(CCCc4ccc5c(n4)NCCC5)C3)CC(=O)O)c2)CC1` [Compound 573] showed an IC50 (αvβ1) of 100 to 1000 nM and an IC50 (αvβ6) of 100 to 1000 nM.
In the case of `Cc1cc(C)n(-c2cccc([C@@H](CO[C@@H]3CCCN(CCCc4ccc5c(n4)NCCC5)C3)CC(=O)O)c2)n1` [Compound 574], the IC50 (αvβ1) is reported as under 100 nM and the IC50 (αvβ6) is reported as under 100 nM.
`Cc1cc(C)n(-c2cccc([C@H](CO[C@@H]3CCCN(CCCc4ccc5c(n4)NCCC5)C3)CC(=O)O)c2)n1` [Compound 575] gave an IC50 (αvβ1) of 100 to 1000 nM and an IC50 (αvβ6) of under 100 nM.
`Cc1cc(C(F)(F)F)nn1-c1cccc([C@@H](CO[C@@H]2CCCN(CCCc3ccc4c(n3)NCCC4)C2)CC(=O)O)c1` [Compound 576] gave an IC50 (αvβ1) of under 100 nM and an IC50 (αvβ6) of under 100 nM.
In the case of `Cc1cc(C(F)(F)F)nn1-c1cccc([C@H](CO[C@@H]2CCCN(CCCc3ccc4c(n3)NCCC4)C2)CC(=O)O)c1` [Compound 577], the IC50 (αvβ1) is reported as under 100 nM and the IC50 (αvβ6) is reported as under 100 nM.
For `CC1(C)CN(c2cc([C@@H](CO[C@@H]3CCCN(CCCc4ccc5c(n4)NCCC5)C3)CC(=O)O)ccc2F)CCO1` [Compound 578], the IC50 (αvβ1) was under 100 nM and the IC50 (αvβ6) was under 100 nM.
`Cc1cc([C@@H](CO[C@@H]2CCCN(CCCc3ccc4c(n3)NCCC4)C2)CC(=O)O)cc(N2CCOC(C)(C)C2)c1` [Compound 579] was tested, and the IC50 (αvβ1) was under 100 nM and the IC50 (αvβ6) was under 100 nM.

Reference: US20240208968A1, “ALPHA V BETA 6 AND ALPHA V BETA 1 INTEGRIN INHIBITORS AND USES THEREOF” (DiCE Molecules SV, Inc., priority 2021, published 2024)
